Results reported in patent US20130018094A1, “Prophylactic or Therapeutic Agent For Gum Disease or Apical Periodontitis” (priority 2009, published 2013).
“Also recorded” adds a separate entry of the source.

What was measured:
IL-6 = assay: Rat apical periodontitis model: level of expression of IL-6 in the lesions by real-time PCR; type: in vivo; settings: male Wistar rats, 150 mg/kg orally twice per day, after 21 days, vs control group
Description: (§1) An experiment was conducted using six-week-old male Wistar rats. After the pulp of the mandibular first molar was exposed using a round bar, apical periodontitis was induced by extracting the pulp and opening it inside the oral cavity. In the experimental groups, monosodium (2S,3S)-3-[[(1S)-1-isobutozymethyl-3-methylbutyl]-carbamoyl]oxirane-2-carboxylate (compound A: 150 mg/kg) was orally administered twice per day. A non-administration group was used as a control. After 21 days, the rats were euthanized and the jawbone surrounding each mandibular molar was extracted. The left side was fixed in 4% paraformaldehyde/phosphate buffer solution (PBS) (4° C., 12 hours), and then the size of the apical lesion was measured by micro-CT imaging (Shimadzu SMX-90CT). After that, it was decalcified with 15% EDTA solution and embedded in OCT compound, and frozen slices 7 μm thick were made. […] On the right side, the lesion portion surrounding the apex was extracted as a lump together with the apex, and after RNA extraction (Qiagen: RNeasy Lipid Tissue Mini Kit), cDNA was created by ordinary methods (Invitrogen: Superscript III), and the levels of expression of inflammatory cytokines (IL-1α and IL-6) were measured by real-time PCR (BioRad: DNA Engine Opticon 2; Invitrogen: Platinum SYBR Green qPCR SuperMix).

cathepsin K = target: T1, cathepsin K (Homo sapiens, UniProt P43235); settings: known from Patent Reference 4 (WO 99/11640); cited from earlier work
T1 sequence (P43235 115-329): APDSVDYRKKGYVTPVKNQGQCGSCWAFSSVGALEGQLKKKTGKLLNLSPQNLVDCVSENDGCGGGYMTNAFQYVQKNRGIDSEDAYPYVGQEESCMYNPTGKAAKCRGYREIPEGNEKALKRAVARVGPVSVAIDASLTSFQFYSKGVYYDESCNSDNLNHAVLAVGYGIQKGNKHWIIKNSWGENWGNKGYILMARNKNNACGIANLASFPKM

IL-1α = assay: Rat apical periodontitis model: level of expression of IL-1α in the lesions by real-time PCR; type: in vivo; settings: male Wistar rats, 150 mg/kg orally twice per day, after 21 days, vs control group
Description: as §1

[1] = system: osteoclasts on the alveolar bone surrounding the apex; assay: Rat apical periodontitis model: histological examination (HE and TRAP staining) of osteoclasts; type: in vivo; settings: male Wistar rats, 150 mg/kg orally twice per day, after 21 days, vs control group
Description: as §1

[2] = system: rat experimental apical periodontitis; assay: Rat apical periodontitis model: size of apical lesions by micro-CT; type: in vivo; settings: male Wistar rats, 150 mg/kg orally twice per day
Description: Using a rat apical periodontitis model, pharmacological tests were conducted for monosodium (2S,3S)-3-[[(1S)-1-isobutozymethyl-3-methylbutyl]-carbamoyl]oxirane-2-carboxylate.
as §1, with “SMX-90CT).” for “SMX-90CT). After that, it was decalcified with 15% EDTA solution and embedded in OCT compound, and frozen slices 7 μm thick were made.”

## CC(C)COC[C@H](CC(C)C)NC(=O)[C@H]1O[C@@H]1C(=O)[O-].[Na+] [compound A, monosodium (2S,3S)-3-[[(1S)-1-isobutozymethyl-3-methylbutyl]-carbamoyl]oxirane-2-carboxylate]
IL-6
  level of expression of IL-6 in the lesions: significantly suppressed
Cathepsin K
  cathepsin K inhibiting action: has a cathepsin K inhibiting action
IL-1α
  level of expression of IL-1α in the lesions: significantly suppressed
[1]
  number of osteoclasts on the alveolar bone surrounding the apex (histological examination): their number tended to be small
[2]; 21 days
  suppressive effect against progression of rat experimental apical periodontitis: excellent suppressive effect
[2]; after 21 days, vs control group, 150 mg/kg
  size of apical lesions by micro-CT: smaller apical lesions were formed; also recorded: their size was smaller than in the control group
